# Molecular target: T1, IRAK4 (Homo sapiens, UniProt Q9NWZ3)
# T1 construct: endogenous in cells; host or cells: OCI-Ly10
# T1 sequence (Q9NWZ3 1-460): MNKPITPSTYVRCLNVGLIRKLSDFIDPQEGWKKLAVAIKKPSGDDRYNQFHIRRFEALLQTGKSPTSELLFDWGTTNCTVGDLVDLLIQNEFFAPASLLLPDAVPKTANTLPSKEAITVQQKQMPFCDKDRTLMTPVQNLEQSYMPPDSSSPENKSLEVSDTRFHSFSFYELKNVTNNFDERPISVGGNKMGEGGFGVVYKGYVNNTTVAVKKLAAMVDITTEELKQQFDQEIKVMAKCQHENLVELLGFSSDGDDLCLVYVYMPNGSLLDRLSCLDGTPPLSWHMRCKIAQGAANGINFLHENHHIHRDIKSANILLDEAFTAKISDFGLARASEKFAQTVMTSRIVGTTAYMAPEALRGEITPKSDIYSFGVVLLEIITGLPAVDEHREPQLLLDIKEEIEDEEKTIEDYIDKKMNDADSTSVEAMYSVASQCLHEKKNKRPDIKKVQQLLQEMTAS
# Assay: IRAK4 degradation in OCI-LY10 xenograft tumors (UPLC-MS/MS, tumor PD)
# Type: in vivo
# Details: for IRAK4 (% Deg): tumor PD, after 5d dosing
# Protocol: At termination: At pre-determined time points based on study design, animals were humanely sacrificed by CO2. Blood was obtained by cardiac puncture for isolation of plasma, any residual tumor was removed and divided in 2 portions, 1 (minimal) for terminal compound exposure and 1 to determine IRAK4 and actin. Compound was determined in tumor and plasma using LC/MS with calibrated standards.
# Interleukin-1 receptor-associated kinase 4 (IRAK4) was quantified in human OCI-LY10 xenograft tumors, together with mouse splenocytes and peripheral blood mononuclear cells (PBMCs), by ultra-performance liquid chromatography-tandem mass spectrometry (UPLC-MS/MS). The concentrations of IRAK4 were normalized by the concentrations of actin in the respective samples. The tumors, splenocytes and PBMCs were lysed in tissue protein extraction reagent (T-PER, ThermoFisher). The samples were centrifuged at 10,000 rpm for 10 minutes. The supernatant (cell lysate) was transferred to another tube. The cell lysates were denatured, reduced, and alkylated with iodoacetamide. The alkylated samples were treated with trypsin to generate the IRAK4 peptide LAVAIK and the actin peptide GYSFTTTAER. These peptides are unique and specific to IRAK4 and actin, respectively, in human, rat and mouse cells and tissues due to sequence conservation between these species.
# Signature peptide concentrations were quantitated using a sensitive and specific targeted LC-MS/MS method. Corresponding mass-shifted, stable isotope-labeled peptides (LAV(d8)AIK and GYSF(d8)TTTAE(d6)R) were used as internal standards (ISs). Calibration standards and were prepared fresh on the day of analysis by diluting synthetic LAVAIK and […] peptides into 0.1% formic acid in 90/10 water acetonitrile (v/v). The standards and study samples) were aliquoted into a 96-well plate and mixed with IS spiking solution. The sample plate was covered with heating foil.
# Signature peptide levels (LAVAIK, GYSFTTTAER) were quantified by UPLC-MS/MS. Injections were made using a Shimadzu ultra performance liquid chromatograph (UPLC) platform. Mobile phase A was 0.1% formic acid in water. Mobile phase B was 0.1% formic acid in 90:10 acetonitrile/water (v/v). A SCIEX TripleTOF 6600 LC-MS/MS system was used for the detection and quantitation of analytes. The intensities of the analytes and ISs were determined by integration of extracted ion peak areas using Analyst and MultiQuant 3.0 software. Calibration curves were prepared by plotting the analyte to IS peak area ratio vs. concentration. The model for the calibration curves was linear with 1/x^2 weighting. […] Measured peptide levels were corrected for sample work up and converted to actual protein concentrations in ng/mg total protein of cell lysate. […]
smiles,measurement,setting,value
"CC(C)(O)c1cc2nc([C@H]3CC[C@H](CN4CC5(CC(CCNc6cccc7c6C(=O)N(C6CCC(=O)NC6=O)C7=O)C5)C4)CC3)sc2cc1NC(=O)c1cccc(C(F)(F)F)n1 (stereo partly shown) [Compound A, N-(2-((1r,4r)-4-((6-(2-((2-(2,6-dioxopiperidin-3-yl)-1,3-dioxoisoindolin-4-yl)amino)ethyl)-2-azaspiro[3.3]heptan-2-yl)methyl)cyclohexyl)-5-(2-hydroxypropan-2-yl)benzo[d]thiazol-6-yl)-6-(trifluoromethyl)picolinamide]",tumor PD effect,"following a single dose, FIG. 4",sustained PD effect
same,IRAK4 (% Deg),3 mpk,16%
same,IRAK4 (% Deg),10 mpk,75%
same,IRAK4 (% Deg),30 mpk,83%

# — patent US11857535B2, “Methods of treating mutant lymphomas” (Kymera Therapeutics, Inc., priority 2020, dated 2024)
